Reference: ChEMBL document CHEMBL5729305, “Compounds, salts thereof and methods for treatment of diseases” (2022)
pKi: −log10 of the molar value.

Target: 5-hydroxytryptamine receptor 2A (Homo sapiens, UniProt P28223)
Assay: Receptor Selection and Amplification (R-SAT) Assays: R-SAT's were generally performed with 50 ng/well of receptor and 20 ng/well of β-galactosidase plasmid DNA. All receptor constructs used were in the pSI mammalian expression vector (Promega Inc) as described previously. The 5-HT2A receptor gene was amplified by nested PCR (polymerase chain reaction) from brain cDNA using the …
Assay type: cell-based

Chain of 5-hydroxytryptamine receptor 2A (P28223 whole entry): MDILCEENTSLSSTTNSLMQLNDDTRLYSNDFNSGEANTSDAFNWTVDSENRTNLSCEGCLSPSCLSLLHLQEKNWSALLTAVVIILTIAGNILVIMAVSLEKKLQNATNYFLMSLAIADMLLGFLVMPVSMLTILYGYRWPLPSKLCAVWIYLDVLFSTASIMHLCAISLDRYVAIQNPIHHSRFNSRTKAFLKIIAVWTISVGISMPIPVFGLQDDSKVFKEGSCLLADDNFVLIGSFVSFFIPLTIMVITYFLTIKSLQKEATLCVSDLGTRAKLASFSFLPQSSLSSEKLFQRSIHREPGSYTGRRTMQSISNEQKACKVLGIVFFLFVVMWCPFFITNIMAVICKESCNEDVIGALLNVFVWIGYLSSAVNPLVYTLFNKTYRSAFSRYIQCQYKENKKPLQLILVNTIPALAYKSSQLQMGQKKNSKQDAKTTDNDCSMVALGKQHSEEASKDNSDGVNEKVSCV

`CC(C)Oc1ccc(CC(=O)N(Cc2ccc(F)cc2F)[C@@H]2CCN(C)C[C@@H]2F)cc1` (mixture of isomers) was tested, and the pKi was 8.00.
